Test results as given in patent publication US8324166B2, “Neuroprotection using NAP-like and SAL-like peptide mimetics” (Ramot at Tel-Aviv University, Ltd., priority 2007, dated 2012).
“And” between values parts separate entries of the source, which are not always exact repeats. Identical values can stand only once.

How the values were obtained:
[1] = test system: cerebral cortical astrocytes intoxicated with ZnCl2; assay: MTS assay: survival of astrocytes following intoxication with ZnCl2; assay type: cell-based, mice
Description: Cell cultures were prepared as previously described (McCarthy KD, de Vellis J., J. Cell Biol., 85:890-902 (1980); Gozes I et al., J. Pharmacol. Exp. Ther., 257:959-66 (1991)). Newborn mice (Harlan Biotech Israel Ltd., Rehovot, Israel) were sacrificed by decapitation and the brain was removed. The cortex was dissected and meninges were removed. The tissue was minced with scissors and placed in Hank's balanced salts solution X1 (HBSS, Biological Industries, Beit Haemek, Israel), 15 mM HEPES Buffer pH 7.3 (Biological Industries, Beit Haemek, Israel) and 0.25% trypsin (Biological Industries, Beit Haemek, Israel) in an incubator at 37° C. 10% CO2 for 20 minutes. The cells were then placed in 8 ml of solution D1 containing 10% heat inactivated fetal calf serum (Biological Industries, Beit Haemek, Israel), 0.1% gentamycin sulphate solution (Biological Industries, Beit Haemek, Israel) and 0.1% penicillin-streptomycin-nystatin solution (Biological Industries, Beit Haemek, Israel) in Dulbecco's modified Eagle's medium (DMEM, Sigma, Rehovot, Israel). The cells were allowed to settle, and were then transferred to a new tube containing 2.5 ml of D1 and triturated using a Pasteur pipette. The process was repeated twice more. Once all the cells were suspended, cell density was determined using a hemocytometer (Neubauer improved, Germany) and 1×10^6 cells/15 ml D1 were inoculated into each 75 cm^2 flask (Corning, Corning, N.Y., USA). Cells were incubated at 37° C. 10% CO2. The medium was changed after 24 hours and cells were grown until confluent (one week).
The flasks containing the cerebral cortical astrocytes were shaken to dislodge residual neurons and oligodendrocytes that may be present. Flasks were then washed with 10 ml cold HBSSx1, HEPES15 mM. 5 ml versene-trypsin solution (BioLab, Jerusalem, Israel) was added to each flask and the flasks were incubated at room temperature for 5 minutes to remove astrocytes. The flasks were then shaken to dislodge the cells. The versene-trypsin solution was neutralized with 5 ml D1. The cell suspension was collected and centrifuged at 100 g for 10 minutes. The supernatant was removed and the cells resuspended in D1. The cells were plated in 96 well plates (Corning, Corning, N.Y., USA) (each flask to 2 plates) and incubated until confluent at 37° C. 10% CO2.
The survival of astrocytes following intoxication with ZnCl2 was tested using the MTS assay. One week after sub-culturing the astrocytes into 96-well plates, the astrocyte growth medium was aspirated and fresh medium containing 200μM ZnCl2 and ascending concentrations of NATLSHIHQ (SEQ ID NO:4) or STPTAIPQ (SEQ ID NO:6)(concentration range: 10^−16-10^−7M) was added to the cells. The cells were incubated for 4 hours in 10% CO2 at 37°C., followed by an MTS assay using Celltiter 96 Aqueous non-radioactive cell proliferation assay (Promega, Madison, WI, USA) which was performed according to the manufacturer's instructions and read in an ELISA plate reader at 490nm.

[2] = test system: rTg(tauP301L)4510 mouse (Tau-Tg); assay: Morris water maze in Tau transgenic mice; assay type: in vivo; settings: Tau-Tg female mice, intranasal NAT 2 μg/5 μl/mouse/day; p=0.039
Description: The mouse model, used in the current study, was previously described (Ramsden et al., (2005) J Neurosci, 25, 10637-10647). The rTg(tauP301L)4510 mouse (designated as Tau-Tg below) expresses the human 4-repeat Tau with the P301L mutation (4RON) associated with frontotemporal dementia and Parkinsonism linked to chromosome 17.
The experiment included three groups: Tau-Tg female mice, 10-month-old, treated by intranasal administration of NAT 2 μg/5 μl/mouse/day (n=5) or vehicle (SW/mouse/day) (n=6), and as control, non-Tg female littermates treated by vehicle (SW/mouse/day) (n=7).
NAT was dissolved in a vehicle solution, in which each milliliter include 7.5 mg of NaCl, 1.7 mg of citric acid monohydrate, 3 mg of disodium phosphate dehydrate, and 0.2 mg of benzalkonium chloride solution (50%). 5 μl of NAT or vehicle solution (DD) were administered intranasally.
Treatment started at 9 months of age and continued daily for a period of 5 weeks. At each test NAT was applied 1 h before the test begun.
Each mouse was placed in a pool of water that is colored opaque with powdered non-fat milk, where it must swim to a hidden escape platform. […]
Experimental procedure: Mice were treated with NAT or vehicle and then habituated for 1 hour in the experiment room. […] The time required for reaching the platform in each trial and the path lengths were measured. […]

Sequence: NATLSIHQ (synthetic NAP-like peptide)
- effective concentrations on astrocyte survival: Astrocytes (200 μM ZnCl2) ([1]; MTS assay, 4 hours, tested 10^−16-10^−7M, significance vs negative control in cell): 10^−12 M and 10^−8 M and 10^−7 (p < 0.0005) M and 10^−10 (p < 0.05) M
- activity in neuroprotection assay ([1]; astrocytes, ZnCl2): active
- efficacy compared between peptides ([1]; survival of astrocytes): greater than that of STPTAIPQ
- improvement in learning: latency to find the hidden platform, first day vs fifth day, second daily trial [2]: Significant improvement
